According to US12559529B2, “NPY2 receptor agonists” (Boehringer Ingelheim International GmbH, priority 2019, dated 2026):
*1 amine or outer side, *2 acyl side, *3 side chain or, on linkers, in order; H or OH if unused. Where a SMILES comes first, the peptide text is derived from it. Side-chain parts run from the residue outwards. The star is where a group is joined. C18 diacid = O=C(O)CCCCCCCCCCCCCCCCC(=O)*; γGlu = O=C(O)[C@H](CCC(=O)[*:2])N[*:1]; Isovaleryl = CC(C)CC(=O)*; AEEA = NCCOCCOCC(=O)O

Biological target: T1, Human Neuropeptide Y2 Receptor (Homo sapiens, UniProt P49146)
T1 construct: purchased CHEMICON HTS066M
T1 sequence (P49146 1-381): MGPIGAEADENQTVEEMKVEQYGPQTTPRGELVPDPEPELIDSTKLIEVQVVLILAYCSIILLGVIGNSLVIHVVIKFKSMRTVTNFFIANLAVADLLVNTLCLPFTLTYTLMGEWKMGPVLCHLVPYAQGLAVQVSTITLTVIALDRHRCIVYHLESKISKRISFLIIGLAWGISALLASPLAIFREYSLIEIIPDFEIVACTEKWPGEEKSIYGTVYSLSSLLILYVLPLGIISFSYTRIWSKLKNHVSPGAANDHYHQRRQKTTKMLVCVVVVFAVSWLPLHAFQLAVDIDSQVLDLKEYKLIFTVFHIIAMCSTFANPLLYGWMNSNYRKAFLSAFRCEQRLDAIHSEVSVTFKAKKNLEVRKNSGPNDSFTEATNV
Test: Radioligand binding competition assay (RLB)
Conditions: Table 3; human 125I-PYY (1-36) 0.02 nM, Y2 receptor membranes; read-out: Ki
Summary of the method: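 Membranes (0.5 μg/well) and test peptides, serially diluted from 1 mM DMSO stocks, were incubated 2 hours at room temperature in HEPES buffer pH 7.4 with Mg, Ca and ovalbumin.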

Row | Ki | Compound
1 | 1.55 nM | CC[C@H](C)[C@H](NC(=O)[C@H](CCC(=O)O)NC(=O)[C@H](CCC(=O)O)NC(=O)[C@@H]1CCCN1C(=O)[C@H](CO)NC(=O)[C@H](CO)NC(=O)[C@H](CC(=O)O)NC(=O)[C@H](CCC(=O)O)NC(=O)[C@H](CCC(=O)O)NC(=O)[C@@H]1CCCN1C(=O)[C@H](CCCCNC(=O)COCCOCCNC(=O)COCCOCCNC(=O)CC[C@H](NC(=O)CCCCCCCCCCCCCCCCC(=O)O)C(=O)O)NC(=O)[C@H](CCC(=O)O)NC(=O)[C@@H]1CCCN1C(=O)[C@H](C)NC(=O)CC(C)C)C(=O)N[C@@H](CCC(N)=O)C(=O)N[C@@H](CCCNC(=N)N)C(=O)N[C@@H](Cc1ccc(O)cc1)C(=O)N[C@@H](Cc1ccc(O)cc1)C(=O)N[C@H](C(=O)N[C@@H](CO)C(=O)N[C@@H](CC(C)C)C(=O)N[C@@H](CCCNC(=N)N)C(=O)N[C@@H](Cc1c[nH]cn1)C(=O)N[C@@H](Cc1ccc(O)cc1)C(=O)N[C@@H](Cc1ccc(O)cc1)C(=O)N[C@@H](CC(N)=O)C(=O)N[C@@H](Cc1c[nH]c2ccccc12)C(=O)N[C@@H](CC(C)C)C(=O)N[C@H](C(=O)N[C@@H](CCCNC(=N)N)C(=O)N[C@@H](CCC(N)=O)C(=O)N[C@@H](CCCNC(=N)N)C(=O)N[C@@H](Cc1ccc(O)cc1)C(N)=O)[C@@H](C)O)C(C)C [Compound 145, N{alpha-4}-(3-methylbutanoyl)-N{epsilon-7}-[2-(2-{2-[2-(2-{2-[(4S)-4-carboxy-4-(17-carboxyheptadecanamido)butanamido]ethoxy}ethoxy)acetamido]ethoxy}ethoxy)acetamido]-[4A,7K,9E,12S,17I,18Q,22V,28Y,30W,31L]hPYY (4-36)]
2 | 5.05 nM | CC(C)CC(=O)N[C@@H](C)C(=O)N1CCC[C@H]1C(=O)N[C@@H](CCC(=O)O)C(=O)N[C@@H](CCCCNC(=O)COCCOCCNC(=O)COCCOCCNC(=O)CC[C@H](NC(=O)CCCCCCCCCCCCCCCCC(=O)O)C(=O)O)C(=O)N1CCC[C@H]1C(=O)N[C@@H](CCC(=O)O)C(=O)N[C@@H](CCC(=O)O)C(=O)N[C@@H](CCC(=O)O)C(=O)N[C@@H](C)C(=O)N[C@@H](CO)C(=O)N1CCC[C@H]1C(=O)N[C@@H](CCC(=O)O)C(=O)N[C@@H](CCC(=O)O)C(=O)N[C@@H](CC(C)C)C(=O)N[C@@H](CCC(N)=O)C(=O)N[C@@H](CCCNC(=N)N)C(=O)N[C@@H](Cc1ccc(O)cc1)C(=O)N[C@@H](Cc1ccc(O)cc1)C(=O)N[C@H](C(=O)N[C@@H](CO)C(=O)N[C@H](C(=O)N[C@@H](CCCNC(=N)N)C(=O)N[C@@H](Cc1c[nH]cn1)C(=O)N[C@@H](Cc1ccc(O)cc1)C(=O)N[C@@H](Cc1ccc(O)cc1)C(=O)N[C@@H](CC(N)=O)C(=O)N[C@@H](Cc1c[nH]c2ccccc12)C(=O)N[C@@H](CC(C)C)C(=O)N[C@H](C(=O)N[C@@H](CCCNC(=N)N)C(=O)N[C@@H](CCC(N)=O)C(=O)N[C@@H](CCCNC(=N)N)C(=O)N[C@@H](Cc1ccc(O)cc1)C(N)=O)[C@@H](C)O)[C@@H](C)O)C(C)C [Compound 146, N{alpha-4}-(3-methylbutanoyl)-N{epsilon-7}-[2-(2-{2-[2-(2-{2-[(4S)-4-carboxy-4-(17-carboxyheptadecanamido)butanamido]ethoxy}ethoxy)acetamido]ethoxy}ethoxy)acetamido]-[4A,7K,9E,11E,18Q,22V,24T,28Y,30W,31L]hPYY (4-36)] (Isovaleryl-APEK([AEEA-AEEA-γGlu-C18 diacid])PEEEASPEELQRYYVSTRHYYNWLTRQRY-NH2)
